Test system: ara-C metabolic pathway genes
Assay: Association of ara-C pathway SNP genotypes with MRD1, EFS and OS in AML02 (logistic regression and Cox models; also within LDAC and HDAC arms)
Set-up: species or system human
Settings: within arm of AML02
From the text: Genomic DNA from patients enrolled in the multi-site St. Jude AML02 trial was genotyped for 155 SNPs in 16 genes of relevance to ara-C pharmacology using sequenom iPlex platform that uses MALDI-TOF based chemistry at University of Minnesota, Biomedical Genomics Center. SNPs were selected based on previously reported studies. For SNPs lacking literature on genetic variation, SNPs were selected to capture LD blocks (European and African ancestry) on a gene. Of 155 SNPs, 1 SNP was excluded due to low call rate (<90%), 47 SNPs were excluded due to minimum allele frequency of less than 5%, 11 SNPs were excluded due to high LD (r^2>0.9) with other SNPs; two SNPs were excluded because of deviation from Hardy-Weinberg equilibrium. Genotype for the COG-AAML0531 cohort for the selected SNPs was obtained using sequenom platform or TaqMan genotyping assays, and for a few SNPs was extracted from the data available on Illumina 2.5 Omni array. Genotype calls from multiple platforms were confirmed across multiple samples randomly collected from the cohort.
SNP genotype groups in three different modes of inheritance (additive, dominant, and recessive) were tested for association with MRD1 using logistic regression models. Odds ratio (OR) and 95% confidence interval (CI) were calculated for each test. SNPs with association P-value<0.05 were considered significant. Cox-proportional hazard models were used to evaluate association of genotype groups with EFS or OS. Hazard ratio (HR) and 95% CI were calculated for each test. p-value<0.05 was considered statistically significant. Given initial risk group assignments are well-established prognostic factors associated with outcome, outcome association analysis of SNPs with and without adjusting for risk group was also performed to identify SNPs that are associated with outcome independent of risk group.
SNPs with p<0.15 in risk-adjusted univariate evaluation with clinical endpoints (MRD1, EFS, and OS) were tested for all possible combinations with a maximum of three SNPs per model in multivariable logistic regression models for association with MRD1 and Cox-proportional hazard models for association with EFS and OS. Analysis for up to 3 SNP combinations was restricted due to computational challenges as increasing the maximum number of SNPs per model drastically increases the number of models as 1000 permutations were run for each model. Models were ordered according to their Bayesian Information Criterion (BIC) and weight in favor of each model. One thousand permutation tests were performed for each model to determine statistical significance. The six unique SNPs from the most significant models for EFS and MRD1 were included in the development of the ACS10 score as described in the results section.
The multicenter AML02 clinical trial randomly assigned subjects to receive low dose ara-C (LDAC: 100 mg/m^2; n=91 patients) or high dose ara-C(HDAC: 3 g/m^2; n=75 patients) in combination with daunorubicin and etoposide as the first course of chemotherapy as described above in patient cohort section. Thus, the association of SNPs with outcome within each arm separately was also explored (Table 5).

[1] = rs4742 (DCTD, WT T, VAR C), MOI R
[2] = rs5841 (NME4, WT C, VAR T), MOI D
[3] = rs324148 (SLC29A1, WT C, VAR T), MOI A
[4] = rs407983 (NME4, WT G, VAR C), MOI A
[5] = rs507964 (SLC29A1, WT C, VAR A), MOI R
[6] = rs580032 (CDA, WT T, VAR G), MOI D
[7] = rs602950 (CDA, WT T, VAR C), MOI A
[8] = rs747199 (SLC29A1, WT C, VAR G), MOI D
[9] = rs818196 (CDA, WT G, VAR C), MOI D
[10] = rs1048977 (CDA, WT C, VAR T), MOI D
[11] = rs1138729 (RRM2, WT A, VAR G), MOI D
[12] = rs2072671 (CDA, WT A, VAR C), MOI A
[13] = rs2396243 (SLC29A1, WT G, VAR A), MOI D
[14] = rs3088062 (CMPK1, WT T, VAR C), MOI A
[15] = rs3743162 (SLC28A1, WT C, VAR T), MOI D
[16] = rs3829540 (NME3, WT G, VAR A), MOI D
[17] = rs3925058 (CMPK1, WT T, VAR C), MOI D
[18] = rs4247411 (SLC28A1, WT C, VAR T), MOI D
[19] = rs4271567 (SLC28A1, WT T, VAR A), MOI R
[20] = rs4643786 (DCK, WT T, VAR C), MOI R

Nc1ccn([C@@H]2O[C@H](CO)[C@@H](O)[C@@H]2O)c(=O)n1 [HDAC, cytarabine]
EFS HR (95% CI) [1]: 1.53 (0.98-2.4)
MRD1 OR (95% CI) [1]: 1.08 (0.49-2.38)
OS HR (95% CI) [1]: 1.49 (0.91-2.46)
EFS HR (95% CI) [2]: 0.86 (0.6-1.23)
MRD1 OR (95% CI) [2]: 0.48 (0.28-0.81)
OS HR (95% CI) [2]: 1.15 (0.74-1.81)
EFS HR (95% CI) [3]: 0.88 (0.52-1.5)
MRD1 OR (95% CI) [3]: 1.08 (0.55-2.1)
OS HR (95% CI) [3]: 0.75 (0.39-1.46)
EFS HR (95% CI) [4]: 1.1 (0.7-1.72)
MRD1 OR (95% CI) [4]: 1.43 (0.76-2.67)
OS HR (95% CI) [4]: 1.05 (0.62-1.8)
EFS HR (95% CI) [5]: 1.71 (1.12-2.62)
MRD1 OR (95% CI) [5]: 1.01 (0.51-2.01)
OS HR (95% CI) [5]: 1.37 (0.8-2.36)
EFS HR (95% CI) [6]: 0.45 (0.22-0.92)
MRD1 OR (95% CI) [6]: 0.91 (0.49-1.66)
OS HR (95% CI) [6]: 0.58 (0.28-1.19)
EFS HR (95% CI) [7]: 1.25 (0.74-2.09)
MRD1 OR (95% CI) [7]: 0.69 (0.32-1.48)
OS HR (95% CI) [7]: 0.86 (0.44-1.69)
EFS HR (95% CI) [8]: 0.97 (0.66-1.42)
MRD1 OR (95% CI) [8]: 1.37 (0.82-2.29)
OS HR (95% CI) [8]: 1.1 (0.72-1.71)
EFS HR (95% CI) [9]: 0.66 (0.45-0.98)
MRD1 OR (95% CI) [9]: 0.9 (0.56-1.47)
OS HR (95% CI) [9]: 0.73 (0.47-1.14)
EFS HR (95% CI) [10]: 0.9 (0.63-1.28)
MRD1 OR (95% CI) [10]: 1.09 (0.67-1.78)
OS HR (95% CI) [10]: 1.44 (0.7-2.98)
EFS HR (95% CI) [11]: 1.14 (0.78-1.66)
MRD1 OR (95% CI) [11]: 1.04 (0.61-1.77)
OS HR (95% CI) [11]: 1.42 (0.93-2.17)
EFS HR (95% CI) [12]: 1.18 (0.7-1.99)
MRD1 OR (95% CI) [12]: 0.73 (0.34-1.56)
OS HR (95% CI) [12]: 0.89 (0.46-1.75)
EFS HR (95% CI) [13]: 0.94 (0.63-1.39)
MRD1 OR (95% CI) [13]: 1.39 (0.84-2.31)
OS HR (95% CI) [13]: 0.87 (0.54-1.4)
EFS HR (95% CI) [14]: 1.41 (0.8-2.51)
MRD1 OR (95% CI) [14]: 1.16 (0.48-2.81)
OS HR (95% CI) [14]: 1.48 (0.75-2.94)
EFS HR (95% CI) [15]: 1.65 (1.15-2.36)
MRD1 OR (95% CI) [15]: 1.89 (1.15-3.11)
OS HR (95% CI) [15]: 1.43 (0.94-2.18)
EFS HR (95% CI) [16]: 0.71 (0.47-1.09)
MRD1 OR (95% CI) [16]: 0.82 (0.49-1.37)
OS HR (95% CI) [16]: 0.51 (0.27-0.93)
EFS HR (95% CI) [17]: 0.81 (0.56-1.18)
MRD1 OR (95% CI) [17]: 1.41 (0.79-2.53)
OS HR (95% CI) [17]: 0.76 (0.49-1.18)
EFS HR (95% CI) [18]: 1.69 (1.08-2.64)
MRD1 OR (95% CI) [18]: 1.91 (1.08-3.37)
OS HR (95% CI) [18]: 1.72 (1-2.95)
EFS HR (95% CI) [19]: 0.52 (0.29-0.95)
MRD1 OR (95% CI) [19]: 0.66 (0.35-1.23)
OS HR (95% CI) [19]: 0.54 (0.26-1.11)
EFS HR (95% CI) [20]: 1.15 (0.63-2.09)
MRD1 OR (95% CI) [20]: 0.87 (0.36-2.12)
OS HR (95% CI) [20]: 1.38 (0.75-2.56)
